From patent US20220177538A1, “CO-AGONISTS AT GLP-1 AND GIP RECEPTORS SUITABLE FOR ORAL DELIVERY” (Novo Nordisk A/S, priority 2020, published 2022)
Like-named read-outs stand apart in the source and are kept apart here. Starred links: 1 amine or outer side, 2 acyl side, 3 side chain; linkers in the order of their positions; H or OH if unused. Non-standard residues stand in square brackets, D forms with d. Residues, ends and D or L forms follow the SMILES beside them. Groups on a side chain read outwards from the residue. *: point of attachment. C20 diacid = O=C(O)CCCCCCCCCCCCCCCCCCC(=O)*; C18 diacid = O=C(O)CCCCCCCCCCCCCCCCC(=O)*; γGlu = O=C(O)[C@H](CCC(=O)[*:2])N[*:1]; εLys = N[C@@H](CCCCN[*:1])C(=O)[*:2]; AEEA = NCCOCCOCC(=O)O; Aib = CC(C)(N)C(=O)O

Legend:
human GIP receptor = molecular target: T1, human GIP receptor (Homo sapiens, UniProt P48546); test: In vitro functional potency, CRE luciferase reporter, whole BHK cells (hGIPR); type: cell-based; details: BHK CRE luc2P hGIPR cells
T1 construct: expressed in transfected cells; host or cells: BHK (parent line BHKTS13), clone BHK CRE luc2P hGIPR
T1 sequence (P48546 22-466): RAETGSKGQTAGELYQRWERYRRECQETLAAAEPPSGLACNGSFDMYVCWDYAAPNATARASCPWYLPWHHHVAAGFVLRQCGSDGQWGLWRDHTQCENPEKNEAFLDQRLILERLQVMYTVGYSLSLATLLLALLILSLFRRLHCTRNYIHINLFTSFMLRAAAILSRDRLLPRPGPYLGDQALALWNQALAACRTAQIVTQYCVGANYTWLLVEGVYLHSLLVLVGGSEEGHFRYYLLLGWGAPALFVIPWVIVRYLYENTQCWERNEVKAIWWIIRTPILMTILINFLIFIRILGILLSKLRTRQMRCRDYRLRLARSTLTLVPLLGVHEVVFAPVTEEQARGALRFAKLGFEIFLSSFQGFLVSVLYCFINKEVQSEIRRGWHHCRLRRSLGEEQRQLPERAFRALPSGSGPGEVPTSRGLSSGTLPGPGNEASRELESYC
Procedure, shortened: (§1)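 BHK CRE luc2P cells stably expressing hGIPR or hGLP-1R were seeded at 5000 cells/well overnight. They were treated 3 h at 37° C with a 12-point, 3.5-fold compound series in buffer with or without HSA, and luciferase luminescence was read. Values come from log(agonist)-response regression, averaging at least two replicates.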

human GLP-1 receptor = human GLP-1 receptor (Homo sapiens, UniProt P43220); test: In vitro functional potency, CRE luciferase reporter, whole BHK cells (hGLP-1R); type: cell-based; design: expressed in transfected cells; host or cells: BHK (parent line BHKTS13), clone BHK CRE luc2P hGLP-1R; details: BHK CRE luc2P hGLP-1R cells
Procedure, shortened: as §1

[1] = 0% HSA, read-out: hGIPR, CRE Luc 0% HSA EC50
[2] = hGIPR, CRE Luc 1% HSA EC50, 1% HSA
[3] = 0% HSA, read-out: hGLP-1R, CRE Luc 0% HSA EC50
[4] = hGLP-1R, CRE Luc 1% HSA EC50, 1% HSA

Chain of human GLP-1 receptor (P43220 24-463): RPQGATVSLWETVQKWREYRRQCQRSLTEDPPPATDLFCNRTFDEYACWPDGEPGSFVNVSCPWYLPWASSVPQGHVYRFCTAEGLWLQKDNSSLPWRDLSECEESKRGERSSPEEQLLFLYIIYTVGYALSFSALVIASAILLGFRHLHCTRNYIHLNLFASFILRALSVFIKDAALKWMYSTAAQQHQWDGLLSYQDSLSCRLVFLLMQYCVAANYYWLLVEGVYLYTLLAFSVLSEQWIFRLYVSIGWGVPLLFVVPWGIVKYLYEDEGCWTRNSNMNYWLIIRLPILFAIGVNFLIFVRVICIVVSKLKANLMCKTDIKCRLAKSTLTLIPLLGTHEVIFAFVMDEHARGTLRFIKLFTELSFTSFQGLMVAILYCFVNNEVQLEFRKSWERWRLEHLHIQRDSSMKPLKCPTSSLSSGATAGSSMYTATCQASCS

Structure (SMILES) | EC50 (human GIP receptor; [1]) | EC50 (human GIP receptor; [2]) | EC50 (human GLP-1 receptor; [3]) | EC50 (human GLP-1 receptor; [4])
CC[C@H](C)[C@H](NC(=O)[C@H](Cc1ccccc1)NC(=O)[C@H](CCC(=O)O)NC(=O)[C@H](CCCNC(=N)N)NC(=O)[C@H](C)NC(=O)[C@H](C)NC(=O)[C@H](CCC(N)=O)NC(=O)[C@H](CCC(=O)O)NC(=O)[C@H](CCC(=O)O)NC(=O)[C@H](CC(C)C)NC(=O)[C@H](Cc1ccc(O)cc1)NC(=O)[C@@H](NC(=O)[C@H](CO)NC(=O)[C@H](Cc1ccc(O)cc1)NC(=O)[C@H](CC(=O)O)NC(=O)[C@H](CO)NC(=O)[C@@H](NC(=O)[C@H](Cc1ccccc1)NC(=O)[C@@H](NC(=O)CNC(=O)[C@H](CCC(=O)O)NC(=O)C(C)(C)NC(=O)[C@@H](N)Cc1ccc(O)cc1)[C@@H](C)O)[C@@H](C)O)[C@@H](C)CC)C(=O)N[C@@H](CC(N)=O)C(=O)N[C@@H](Cc1c[nH]c2ccccc12)C(=O)N[C@@H](CC(C)C)C(=O)N[C@@H](CC(C)C)C(=O)N[C@@H](C)C(=O)NCC(=O)NCC(=O)N1CCC[C@H]1C(=O)N[C@@H](CO)C(=O)N[C@@H](CCCCNC(=O)[C@@H](N)CCCCNC(=O)[C@@H](N)CCCCNC(=O)CC[C@H](NC(=O)CCCCCCCCCCCCCCCCC(=O)O)C(=O)O)C(=O)NCC(=O)N[C@@H](C)C(=O)N1CCC[C@H]1C(=O)N1CCC[C@H]1C(=O)N1CCC[C@H]1C(=O)N[C@@H](CO)C(=O)O [Compound 42] (H-Y[Aib]EGTFTSDYSIYLEEQAAREFINWLLAGGPSK([εLys-εLys-γGlu-C18 diacid])GAPPPS-OH) | 0.0059 nM | 0.306 nM | 0.0023 nM | 0.0835 nM
CC[C@H](C)[C@H](NC(=O)[C@H](Cc1ccccc1)NC(=O)[C@H](CCCCNC(=O)[C@@H](N)CCCCNC(=O)[C@@H](N)CCCCNC(=O)CC[C@H](NC(=O)CCCCCCCCCCCCCCCCC(=O)O)C(=O)O)NC(=O)[C@H](CCCNC(=N)N)NC(=O)[C@H](C)NC(=O)[C@H](C)NC(=O)[C@H](CCC(N)=O)NC(=O)[C@H](CCC(=O)O)NC(=O)[C@H](CCC(=O)O)NC(=O)[C@H](CC(C)C)NC(=O)[C@H](Cc1ccc(O)cc1)NC(=O)[C@@H](NC(=O)[C@H](CO)NC(=O)[C@H](Cc1ccc(O)cc1)NC(=O)[C@H](CC(=O)O)NC(=O)[C@H](CO)NC(=O)[C@@H](NC(=O)[C@H](Cc1ccccc1)NC(=O)[C@@H](NC(=O)CNC(=O)[C@H](CCC(=O)O)NC(=O)C(C)(C)NC(=O)[C@@H](N)Cc1ccc(O)cc1)[C@@H](C)O)[C@@H](C)O)[C@@H](C)CC)C(=O)N[C@@H](CC(N)=O)C(=O)N[C@@H](Cc1c[nH]c2ccccc12)C(=O)N[C@@H](CC(C)C)C(=O)N[C@@H](CC(C)C)C(=O)N[C@@H](C)C(=O)NCC(=O)NCC(=O)N1CCC[C@H]1C(=O)N[C@@H](CO)C(=O)N[C@@H](CO)C(=O)NCC(=O)N[C@@H](C)C(=O)N1CCC[C@H]1C(=O)N1CCC[C@H]1C(=O)N1CCC[C@H]1C(=O)N[C@@H](CO)C(=O)O [Compound 37] (H-Y[Aib]EGTFTSDYSIYLEEQAARK([εLys-εLys-γGlu-C18 diacid])FINWLLAGGPSSGAPPPS-OH) | 0.0112 nM | 0.298 nM | 0.0027 nM | 0.0946 nM
CC[C@H](C)[C@H](NC(=O)[C@H](CO)NC(=O)[C@H](Cc1ccc(O)cc1)NC(=O)[C@H](CC(=O)O)NC(=O)[C@H](CO)NC(=O)[C@@H](NC(=O)[C@H](Cc1ccccc1)NC(=O)[C@@H](NC(=O)CNC(=O)[C@H](CCC(=O)O)NC(=O)C(C)(C)NC(=O)[C@@H](N)Cc1ccc(O)cc1)[C@@H](C)O)[C@@H](C)O)C(=O)N[C@@H](Cc1ccc(O)cc1)C(=O)N[C@@H](CC(C)C)C(=O)N[C@@H](CCC(=O)O)C(=O)N[C@@H](CCCCNC(=O)[C@@H](N)CCCCNC(=O)[C@@H](N)CCCCNC(=O)CC[C@H](NC(=O)CCCCCCCCCCCCCCCCCCC(=O)O)C(=O)O)C(=O)N[C@@H](CCC(N)=O)C(=O)N[C@@H](C)C(=O)N[C@@H](C)C(=O)N[C@@H](CCC(N)=O)C(=O)N[C@@H](CCC(=O)O)C(=O)N[C@@H](Cc1ccccc1)C(=O)N[C@H](C(=O)N[C@@H](CC(N)=O)C(=O)N[C@@H](Cc1c[nH]c2ccccc12)C(=O)N[C@@H](CC(C)C)C(=O)N[C@@H](CC(C)C)C(=O)N[C@@H](C)C(=O)NCC(=O)NCC(=O)N1CCC[C@H]1C(=O)N[C@@H](CO)C(=O)N[C@@H](CO)C(=O)NCC(=O)N[C@@H](C)C(=O)N1CCC[C@H]1C(=O)N1CCC[C@H]1C(=O)N1CCC[C@H]1C(=O)N[C@@H](CO)C(N)=O)C(C)C [Compound 1] (H-Y[Aib]EGTFTSDYSIYLEK([εLys-εLys-γGlu-C20 diacid])QAAQEFVNWLLAGGPSSGAPPPS-NH2) | 0.0028 nM | 0.173 nM | 0.0078 nM | 1.66 nM
CC[C@H](C)[C@H](NC(=O)[C@H](Cc1ccccc1)NC(=O)[C@H](CCC(=O)O)NC(=O)[C@H](CCCNC(=N)N)NC(=O)[C@H](C)NC(=O)[C@H](C)NC(=O)[C@H](CCCCNC(=O)[C@@H](N)CCCCNC(=O)[C@@H](N)CCCCNC(=O)CC[C@H](NC(=O)CCCCCCCCCCCCCCCCC(=O)O)C(=O)O)NC(=O)[C@H](CCC(=O)O)NC(=O)[C@H](CCC(=O)O)NC(=O)[C@H](CC(C)C)NC(=O)[C@H](Cc1ccc(O)cc1)NC(=O)[C@@H](NC(=O)[C@H](CO)NC(=O)[C@H](Cc1ccc(O)cc1)NC(=O)[C@H](CC(=O)O)NC(=O)[C@H](CO)NC(=O)[C@@H](NC(=O)[C@H](Cc1ccccc1)NC(=O)[C@@H](NC(=O)CNC(=O)[C@H](CCC(=O)O)NC(=O)C(C)(C)NC(=O)[C@@H](N)Cc1ccc(O)cc1)[C@@H](C)O)[C@@H](C)O)[C@@H](C)CC)C(=O)N[C@@H](CC(N)=O)C(=O)N[C@@H](Cc1c[nH]c2ccccc12)C(=O)N[C@@H](CC(C)C)C(=O)N[C@@H](CC(C)C)C(=O)N[C@@H](C)C(=O)NCC(=O)NCC(=O)N1CCC[C@H]1C(=O)N[C@@H](CO)C(=O)N[C@@H](CO)C(=O)NCC(=O)N[C@@H](C)C(=O)N1CCC[C@H]1C(=O)N1CCC[C@H]1C(=O)N1CCC[C@H]1C(=O)N[C@@H](CO)C(=O)O [Compound 38] (H-Y[Aib]EGTFTSDYSIYLEEK([εLys-εLys-γGlu-C18 diacid])AAREFINWLLAGGPSSGAPPPS-OH) | 0.0124 nM | 0.815 nM | 0.0031 nM | 0.259 nM
CC[C@H](C)[C@H](NC(=O)[C@H](Cc1ccccc1)NC(=O)[C@H](CCC(=O)O)NC(=O)[C@H](CCCNC(=N)N)NC(=O)[C@H](C)NC(=O)[C@H](C)NC(=O)[C@H](CCC(N)=O)NC(=O)[C@H](CCCCNC(=O)[C@@H](N)CCCCNC(=O)[C@@H](N)CCCCNC(=O)CC[C@H](NC(=O)CCCCCCCCCCCCCCCCC(=O)O)C(=O)O)NC(=O)[C@H](CCC(=O)O)NC(=O)[C@H](CC(C)C)NC(=O)[C@H](CC(C)C)NC(=O)[C@@H](NC(=O)[C@H](CO)NC(=O)[C@H](Cc1ccc(O)cc1)NC(=O)[C@H](CC(=O)O)NC(=O)[C@H](CO)NC(=O)[C@@H](NC(=O)[C@H](Cc1ccccc1)NC(=O)[C@@H](NC(=O)CNC(=O)[C@H](CCC(=O)O)NC(=O)C(C)(C)NC(=O)[C@@H](N)Cc1ccc(O)cc1)[C@@H](C)O)[C@@H](C)O)[C@@H](C)CC)C(=O)N[C@@H](CC(N)=O)C(=O)N[C@@H](Cc1c[nH]c2ccccc12)C(=O)N[C@@H](CC(C)C)C(=O)N[C@@H](CC(C)C)C(=O)N[C@@H](C)C(=O)NCC(=O)O [Compound 18] (H-Y[Aib]EGTFTSDYSILLEK([εLys-εLys-γGlu-C18 diacid])QAAREFINWLLAG-OH) | 0.0209 nM | 0.285 nM | 0.0197 nM | 0.226 nM
CC[C@H](C)[C@H](NC(=O)[C@H](Cc1ccccc1)NC(=O)[C@H](CCC(=O)O)NC(=O)[C@H](CCCNC(=N)N)NC(=O)[C@H](C)NC(=O)[C@H](C)NC(=O)[C@H](CCC(N)=O)NC(=O)[C@H](CCC(=O)O)NC(=O)[C@H](CCC(=O)O)NC(=O)[C@H](CC(C)C)NC(=O)[C@H](CC(C)C)NC(=O)[C@@H](NC(=O)[C@H](CO)NC(=O)[C@H](Cc1ccc(O)cc1)NC(=O)[C@H](CC(=O)O)NC(=O)[C@H](CO)NC(=O)[C@@H](NC(=O)[C@H](Cc1ccccc1)NC(=O)[C@@H](NC(=O)CNC(=O)[C@H](CCC(=O)O)NC(=O)C(C)(C)NC(=O)[C@@H](N)Cc1ccc(O)cc1)[C@@H](C)O)[C@@H](C)O)[C@@H](C)CC)C(=O)N[C@@H](CCC(=O)O)C(=O)N[C@@H](Cc1c[nH]c2ccccc12)C(=O)N[C@@H](CC(C)C)C(=O)N[C@@H](CC(C)C)C(=O)N[C@@H](C)C(=O)NCC(=O)NCC(=O)N1CCC[C@H]1C(=O)N[C@@H](CO)C(=O)N[C@@H](CCCCNC(=O)COCCOCCNC(=O)COCCOCCNC(=O)CC[C@H](NC(=O)CCCCCCCCCCCCCCCCC(=O)O)C(=O)O)C(=O)NCC(=O)N[C@@H](C)C(=O)N1CCC[C@H]1C(=O)N1CCC[C@H]1C(=O)N1CCC[C@H]1C(=O)N[C@@H](CO)C(=O)O [Compound 45] (H-Y[Aib]EGTFTSDYSILLEEQAAREFIEWLLAGGPSK([AEEA-AEEA-γGlu-C18 diacid])GAPPPS-OH) | 0.0038 nM | 1.22 nM | 0.0039 nM | 1.58 nM
